Results on 22 compounds are retold here after patent US11702404B2, “GLP-1R modulating compounds” (priority 2019, dated 2023).

In one series the target is GLP-1R (Homo sapiens, UniProt P43220). Kind of series: GLP-1R activation: cAMP increase in CHO cells stably expressing GLP-1R. The format is cell-based.
Series [1] in a line: Microsomal stability, human liver microsomes (predicted hepatic clearance). Conditions: predicted from in vitro microsomal stability data.
[2] abbreviates: cAMP increase, CHO cells stably expressing GLP-1R, 10 point dose response, 30 minutes incubation, read-out: EC50.

Read-outs that look alike come from different tables or passages of the source.

GLP-1R, sequence (P43220 24-463): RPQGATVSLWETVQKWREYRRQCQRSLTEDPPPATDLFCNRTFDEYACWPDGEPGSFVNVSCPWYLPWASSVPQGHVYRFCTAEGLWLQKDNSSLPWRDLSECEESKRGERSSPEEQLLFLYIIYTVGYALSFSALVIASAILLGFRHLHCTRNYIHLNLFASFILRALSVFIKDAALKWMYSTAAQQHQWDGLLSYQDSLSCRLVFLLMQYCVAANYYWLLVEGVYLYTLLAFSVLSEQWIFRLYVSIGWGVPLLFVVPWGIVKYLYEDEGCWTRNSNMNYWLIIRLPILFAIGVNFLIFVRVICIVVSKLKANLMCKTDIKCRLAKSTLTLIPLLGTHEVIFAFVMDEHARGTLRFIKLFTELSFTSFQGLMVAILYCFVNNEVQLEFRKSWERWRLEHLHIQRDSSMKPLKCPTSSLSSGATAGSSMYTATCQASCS

Regarding `O=C(O)c1ccc2nc(Cc3cc(F)c(-c4cccc(OCc5ccc(C(F)(F)F)cc5)n4)cc3F)n(C[C@@H]3CCO3)c2c1` [Example 517, (S)-2-(2,5-difluoro-4-(6-((4-(trifluoromethyl)benzyl)oxy)pyridin-2-yl)benzyl)-1-(oxetan-2-ylmethyl)-1H-benzo[d]imidazole-6-carboxylic acid], at GLP-1R (setting [2]), the EC50 is 0.06 nM. Further, the “Predicted Hepatic Clearance (Pred. Cl.)” value in series [1] is on record as less than 0.11 L/h/kg.
As for `COCCn1c(Cc2ncc(-c3cccc(OCc4ccc(C#N)cc4F)n3)cc2Cl)nc2ccc(C(=O)O)cc21` [Example 518, 2-((5′-chloro-6-((4-cyano-2-fluorobenzyl)oxy)-[2,3′-bipyridin]-6′-yl)methyl)-1-(2-methoxyethyl)-1H-benzo[d]imidazole-6-carboxylic acid], the EC50 on GLP-1R (setting [2]) stood at 43.1 nM. In series [1], the “Predicted Hepatic Clearance (Pred. Cl.)” value is 0.32 L/h/kg.
For `CCn1c(Cn2c(Cc3ccc(-c4cccc(OCc5ccc(C#N)cc5F)n4)cc3F)nc3ccc(C(=O)O)cc32)cnc1C` [Example 519, 2-(4-(6-((4-cyano-2-fluorobenzyl)oxy)pyridin-2-yl)-2-fluorobenzyl)-1-((l-ethyl-2-methyl-1H-imidazol-5-yl)methyl)-1H-benzo[d]imidazole-6-carboxylic acid], in that order: 39.3 nM and 0.21 L/h/kg.
For `CCn1cncc1Cn1c(Cc2ccc(-c3cccc(OCc4ccc(C#N)cc4F)n3)c(F)c2)nc2ccc(C(=O)O)cc21` [Example 520, 2-(4-(6-((4-cyano-2-fluorobenzyl)oxy)pyridin-2-yl)-3-fluorobenzyl)-1-((1-ethyl-1H-imidazol-5-yl)methyl)-1H-benzo[d]imidazole-6-carboxylic acid] the same measures were 0.36 nM and 0.375 L/h/kg.
On to `N#Cc1ccc(COc2cccc(-c3ccc(Cc4nc5ccc(C(=O)O)cc5n4CC4(CF)CC4)cc3F)n2)c(F)c1` [Example 521, 2-(4-(6-((4-cyano-2-fluorobenzyl)oxy)pyridin-2-yl)-3-fluorobenzyl)-1-((1-(fluoromethyl)cyclopropyl)methyl)-1H-benzo[d]imidazole-6-carboxylic acid], for which the EC50 at GLP-1R (setting [2]) was 0.54 nM. In series [1], the “Predicted Hepatic Clearance (Pred. Cl.)” value is given as 0.405 L/h/kg.
Consider `CCn1cncc1Cn1c(Cc2ccc(-c3cccc(OCc4ccc(C#N)cc4F)n3)cc2C#N)nc2ccc(C(=O)O)cc21` [Example 522, 2-(2-cyano-4-(6-((4-cyano-2-fluorobenzyl)oxy)pyridin-2-yl)benzyl)-1-((1-ethyl-1H-imidazol-5-yl)methyl)-1H-benzo[d]imidazole-carboxylic acid], for which, at GLP-1R (setting [2]), the EC50 is 137 nM. The “Predicted Hepatic Clearance (Pred. Cl.)” value in series [1] was less than 0.11 L/h/kg.
For `N#Cc1ccc(COc2cccc(-c3ccc(Cc4nc5ccc(C(=O)O)cc5n4C[C@@H]4CCO4)cc3F)n2)c(F)c1` [Example 523, (S)-2-(4-(6-((4-cyano-2-fluorobenzyl)oxy)pyridin-2-yl)-3-fluorobenzyl)-1-(oxetan-2-ylmethyl)-1H-benzo[d]imidazole-6-carboxylic acid], the EC50 at GLP-1R (setting [2]) was 0.51 nM. For the same compound, in series [1], the “Predicted Hepatic Clearance (Pred. Cl.)” value is 0.3 L/h/kg.
Regarding `CCn1nccc1Cn1c(Cc2ccc(-c3cccc(OCc4ccc(C#N)cc4F)n3)cc2F)nc2ccc(C(=O)O)cc21` [Example 524, 2-(4-(6-((4-cyano-2-fluorobenzyl)oxy)pyridin-2-yl)-2-fluorobenzyl)-1-((l-ethyl-1H-pyrazol-5-yl)methyl)-1H-benzo[d]imidazole-6-carboxylic acid], the EC50 on GLP-1R (setting [2]) turned out to be 66.5 nM. The “Predicted Hepatic Clearance (Pred. Cl.)” value in series [1] is on record as 0.43 L/h/kg.
For `CCn1cncc1Cn1c(Cc2ccc(-c3cccc(OCc4ccc(C#N)cc4F)n3)cc2F)nc2ccc(C(=O)O)cc21` [Example 525, 2-(4-(6-((4-cyano-2-fluorobenzyl)oxy)pyridin-2-yl)-2-fluorobenzyl)-1-((1-ethyl-1H-imidazol-5-yl)methyl)-1H-benzo[d]imidazole-6-carboxylic acid], in that order: 0.6 nM and 0.12 L/h/kg.
In turn, `COCCn1c(Cc2ccc(-c3cccc(OCc4ccc(C#N)cc4F)n3)c(C#N)c2)nc2ccc(C(=O)O)cc21` [Example 526, 2-(3-cyano-4-(6-((4-cyano-2-fluorobenzyl)oxy)pyridin-2-yl)benzyl)-1-(2-methoxyethyl)-1H-benzo[d]imidazole-6-carboxylic acid] came in with an EC50 on GLP-1R (EC50 (nM)) of 70.9 nM. Further, the “Predicted Hepatic Clearance (Pred. Cl.)” value in series [1] was 0.45 L/h/kg.
On to `CCn1cncc1Cn1c(Cc2ccc(-c3cccc(OCc4ccc(C#N)cc4F)c3)cc2F)nc2ccc(C(=O)O)cc21` [Example 527, 2-((3′-((4-cyano-2-fluorobenzyl)oxy)-3-fluoro-[1,1′-biphenyl]-4-yl)methyl)-1-((1-ethyl-1H-imidazol-5-yl)methyl)-1H-benzo[d]imidazole-6-carboxylic acid], for which the EC50 on GLP-1R (setting [2]) turned out to be 1.84 nM. Also, the “Predicted Hepatic Clearance (Pred. Cl.)” value in series [1] is recorded as 0.22 L/h/kg.
For `N#Cc1ccc(COc2cccc(-c3ccc(Cc4nc5ccc(C(=O)O)cc5n4CC4(C(F)F)CC4)cc3F)n2)c(F)c1` [Example 528, 2-(4-(6-((4-cyano-2-fluorobenzyl)oxy)pyridin-2-yl)-3-fluorobenzyl)-1-((1-(difluoromethyl)cyclopropyl)methyl)-1H-benzo[d]imidazole-6-carboxylic acid] the same measures were 0.45 nM and 0.45 L/h/kg.
On to `N#CCC1(Cn2c(Cc3ccc(-c4cccc(OCc5ccc(C#N)cc5F)n4)c(F)c3)nc3ccc(C(=O)O)cc32)CC1` [Example 530, 2-(4-(6-((4-cyano-2-fluorobenzyl)oxy)pyridin-2-yl)-3-fluorobenzyl)-1-((1-(cyanomethyl)cyclopropyl)methyl)-1H-benzo[d]imidazole-6-carboxylic acid], for which the EC50 at GLP-1R (setting [2]) was determined as 0.43 nM. Moreover, the “Predicted Hepatic Clearance (Pred. Cl.)” value in series [1] was 0.63 L/h/kg.
For `N#Cc1ccc(COc2cccc(-c3ccc(Cc4nc5ccc(C(=O)O)cc5n4Cc4ccccc4)c(F)c3)n2)c(F)c1` [Example 531, 1-benzyl-2-(4-(6-((4-cyano-2-fluorobenzyl)oxy)pyridin-2-yl)-2-fluorobenzyl)-1H-benzo[d]imidazole-6-carboxylic acid] the same measures were 12.8 nM and 0.135 L/h/kg.
Regarding `N#Cc1ccc(COc2cccc(-c3ccc(Cc4nc5ccc(C(=O)O)cc5n4Cc4cncnc4)c(F)c3)n2)c(F)c1` [Example 532, 2-(4-(6-((4-cyano-2-fluorobenzyl)oxy)pyridin-2-yl)-2-fluorobenzyl)-1-(pyrimidin-5-ylmethyl)-1H-benzo[d]imidazole-6-carboxylic acid], the EC50 on GLP-1R (setting [2]) was found to be 58.6 nM. The “Predicted Hepatic Clearance (Pred. Cl.)” value in series [1] was less than 0.11 L/h/kg.
For `CCn1nccc1Cn1c(Cc2ccc(-c3cccc(OCc4ccc(C#N)cc4F)n3)c(F)c2)nc2ccc(C(=O)O)cc21` [Example 533, 2-(4-(6-((4-cyano-2-fluorobenzyl)oxy)pyridin-2-yl)-3-fluorobenzyl)-1-((1-ethyl-1H-pyrazol-5-yl)methyl)-1H-benzo[d]imidazole-6-carboxylic acid] the same measures were 47.1 nM and 0.6 L/h/kg.
For `CCc1cnccc1Cn1c(Cc2ccc(-c3cccc(OCc4ccc(C#N)cc4F)n3)c(F)c2)nc2ccc(C(=O)O)cc21` [Example 534, 2-(4-(6-((4-cyano-2-fluorobenzyl)oxy)pyridin-2-yl)-3-fluorobenzyl)-1-((3-ethylpyridin-4-yl)methyl)-1H-benzo[d]imidazole-6-carboxylic acid], in that order: 49.9 nM and 0.91 L/h/kg.
In the case of `O=C(O)c1ccc2nc(Cc3ccc(-c4cccc(OCc5ccc(Cl)cc5F)n4)c(F)c3)n(CC3(CF)CC3)c2c1` [Example 535, 2-(4-(6-((4-chloro-2-fluorobenzyl)oxy)pyridin-2-yl)-3-fluorobenzyl)-1-((1-(fluoromethyl)cyclopropyl)methyl)-1H-benzo[d]imidazole-6-carboxylic acid], at GLP-1R (setting [2]), the EC50 came out at 0.66 nM. Further, the “Predicted Hepatic Clearance (Pred. Cl.)” value in series [1] is 0.25 L/h/kg.
For `N#Cc1ccc(COc2cccc(-c3cc(F)c(Cc4nc5ccc(C(=O)O)cc5n4C[C@@H]4CCO4)cc3F)n2)cc1` [Example 536, (S)-2-(4-(6-((4-cyanobenzyl)oxy)pyridin-2-yl)-2,5-difluorobenzyl)-1-(oxetan-2-ylmethyl)-1H-benzo[d]imidazole-6-carboxylic acid] the same measures were 0.04 nM and 0.145 L/h/kg.
The compound `COCCn1c(Cc2c(F)cc(-c3cccc(OCc4ccc(C#N)cc4F)n3)cc2C#N)nc2ccc(C(=O)O)cc21` [Example 537, 2-(2-cyano-4-(6-((4-cyano-2-fluorobenzyl)oxy)pyridin-2-yl)-6-fluorobenzyl)-1-(2-methoxyethyl)-1H-benzo[d]imidazole-6-carboxylic acid] gave an EC50 at GLP-1R (EC50 (nM)) of 6.89 nM. Besides, the “Predicted Hepatic Clearance (Pred. Cl.)” value in series [1] is given as 0.2 L/h/kg.
As to `CC(=O)N1CC(F)(F)C[C@@H]1Cn1c(Cc2cc(F)c(-c3cccc(OCc4ccc(C#N)cc4F)n3)cc2F)nc2ccc(C(=O)O)cc21` [Example 539, (R)-1-((1-acetyl-4,4-difluoropyrrolidin-2-yl)methyl)-2-(4-(6-((4-cyano-2-fluorobenzyl)oxy)pyridin-2-yl)-2,5-difluorobenzyl)-1H-benzo[d]imidazole-6-carboxylic acid], the EC50 on GLP-1R (read-out: EC50) came to 0.7 nM. Besides, the “Predicted Hepatic Clearance (Pred. Cl.)” value in series [1] is given as 0.38 L/h/kg.
Consider `N#Cc1ccc(COc2cccc(-c3cc(=O)n(Cc4nc5ccc(C(=O)O)cc5n4C[C@@H]4CCO4)cc3F)n2)c(F)c1` [Example 540, (S)-2-((6-((4-cyano-2-fluorobenzyl)oxy)-5′-fluoro-2′-oxo-[2,4′-bipyridin]-1′(2′H)-yl)methyl)-1-(oxetan-2-ylmethyl)-1H-benzo[d]imidazole-6-carboxylic acid], for which the EC50 on GLP-1R (setting [2]) worked out at 0.12 nM. Besides, the “Predicted Hepatic Clearance (Pred. Cl.)” value in series [1] is 0.20 L/h/kg.

A word on the EC50: it is the concentration needed to bring the measured effect to its halfway point.
